Reference: US8003779B2, “Compositions and methods for studying and treating inflammatory diseases and disorders” (University of Rochester, priority 2005, dated 2011)

What was measured:
[1] = system: mice; format: in vivo; settings: perinatal systemic administration
[2] = literature (Loddick and Rothwell 1996; Yamasaki et al. 1995); cited from earlier work
[3] = system: 293HGLVP/CrePr cells; assay: RU486-induced CrePr activation of IL-1βXAT in 293HGLVP/CrePr cells; format: cell-based
Method: The IL-1β^XAT gene was transiently transfected into 293HGLVP/CrePr cells and the expression of IL-1β and lacZ were evaluated following RU486 (10^-7 M) administration.
IL-1β expression was assessed at the mRNA level by reverse transcriptase PCR (RT-PCR), and lacZ expression was evaluated by X-gal histochemistry.

[4] = system: primary rat endothelial cells; assay: IL-1β regulation of inflammation-related genes in primary rat endothelial cells (mRNA, zymography); format: cell-based; settings: murine IL-1β 10 ng/mL, over 72 hours
Method: The effects of IL-1β were evaluated in vitro utilizing primary rat endothelial cell cultures as a representative rodent cell type. In this experiment, murine IL-1β (10 ng/mL) was administered to cultured primary cells, and subsequently examined for the regulation of several inflammation-related genes at the transcript level over the course of 72 hours. These molecules include (A) the inducible isoform of cyclooxygenase (COX-2), intercellular adhesion molecule-1 (ICAM-1) and monocyte chemoattractant protein-1 (MCP-1), as well as (B) the collagenase-A (MMP-2) and -B (MMP-9). Panel (C) depicts enzyme activity levels of MMP-2 and MMP-9 as evaluated by zymography.
Moreover, a plethora of inflammation-related genes are in turn induced by IL-1β, leading to exacerbation of the inflammatory response. IL-1βregulates down-stream inflammatory genes, including the inducible isoform of cyclooxygenase (COX-2) and the intercellular adhesion molecule-1 (ICAM-1), the monocyte chemoattractant protein-1 (MCP-1), as well as collagenases A (MMP-2) and B (MMP-9). ICAM-1 and MCP-1 are molecules associated with the recruitment of circulating immune cells at the site of injury (i.e. neutrophils and monocytes, respectively), whereas MMP-2 and MMP-9 are collagenases associated with tissue destruction during arthritis and injury. Primary rat endothelial cells were employed as a representative rodent model to investigate the effects of IL-1β on the regulation of ICAM-1, MCP-1, MMP-2 and MMP-9 at the transcriptional level (mRNA) as well as the enzyme activity level (zymography). FIG. 5 summarizes the regulation of these genes over time.

FIV(lacZ): FIV vector carrying the reporter gene lacZ, construct 12750 bp
duration of stable lacZ reporter expression [1]: over 3 months

IL-1ra: IL-1 receptor antagonist, competes for receptor binding
tissue damage / injury in stroke models [2]: significantly attenuates tissue injury

CC#C[C@]1(O)CC[C@H]2[C@@H]3CCC4=CC(=O)CCC4=C3[C@@H](c3ccc(N(C)C)cc3)C[C@@]21C [RU486, mifepristone]
secreted IL-1β protein in supernatant media (ELISA) ([3]; RU486 10^-7 M): significantly higher levels | IL-1β and lacZ mRNA (RT-PCR) ([3]; RU486 10^-7 M, IL-1βXAT-transfected cells): up-regulation | number of X-gal positive cells ([3]; RU486 in culture media): significant increase

B1: IL-1β: pro-inflammatory cytokine; murine IL-1β (10 ng/mL) in FIG. 5 (protein, UniProt P10749 118-269, looked up)
Interleukin-1 beta: VPIRQLHYRLRDEQQKSLVLSDPYELKALHLNGQNINQQVIFSMSFVQGEPSNDKIPVALGLKGKNLYLSCVMKDGTPTLQLESVDPKQYPKKKMEKRFVFNKIEVKSKVEFESAEFPNWYISTSQAEHKPVFLGNNSGQDIIDFTMESVSS
tissue damage / injury in stroke models [2]: exacerbates damage | MMP-2 enzyme activity (zymography) [4]: increased with time | MMP-2 mRNA levels [4]: not altered | synthesis of COX-2, MCP-1, ICAM-1 and MMP-9 [4]: upregulated
